Consider nine compounds from US9511134B2, “Inducing immune responses to influenza virus using polypeptide and nucleic acid compositions” (priority 2006, dated 2016).

Each structure is given as a SMILES string. Where “and” joins values, the source holds several entries; their conditions need not be identical. Equal values may be shown once. Read-outs that look alike come from different tables or passages of the source.

One assay addresses DRB1*0802 (Homo sapiens, UniProt P01903+P01911, A100R/A103L/A169T/F76Y/H45Y/I96F/K41T/L162R/M171V/P40S/Q125H/Q178H/Q39Y/Q99D/R218S/R42G/S66Y/V115G/W38E). In words: biochemical. Format: binding.
The next assay concerns the target T1, DRB5*0101 (Homo sapiens, UniProt P01903+Q30154).
T1 construct: made in house; host or cells: EBV-transformed homozygous human B cell lines, transfected fibroblasts or single-allele 721.221 transfectants
The assay is described as follows: biochemical. Type of assay: binding.

The target of the next assay is T2, DRB4*0101 (Homo sapiens, UniProt P01903+P13762, G164S).
T2 construct: made in house; host or cells: EBV-transformed homozygous human B cell lines, transfected fibroblasts or single-allele 721.221 transfectants
The assay is described as follows: biochemical. Format: binding. Particulars: IC50 nM to purified HLA DRB4*0101.

The target of the next assay is T3, DRB1*0401 (Homo sapiens, UniProt P01903+P01911, A100K/A169T/F76Y/I96L/K127E/L162R/M171V/N62H/P40V/Q125Y/R42H/S133A/S149N/S66Y/V115G/V209L/W38E).
T3 construct: made in house; host or cells: EBV-transformed homozygous human B cell lines, transfected fibroblasts or single-allele 721.221 transfectants
In words: biochemical. To be noted: read-out: IC50 nM to purified HLA DRB1*0401. Format: binding.

A further assay concerns the target DRB1*0404 (Homo sapiens, UniProt P01903+P01911, A100R/A169T/F76Y/I96L/K127E/L162R/M171V/N62H/P40V/Q125Y/R42H/S133A/S149N/S66Y/V209L/W38E). In words: biochemical. Format: binding.
The next assay concerns the target DRB1*1101 (Homo sapiens, UniProt P01903+P01911, A100R/A169T/A87E/I96F/K41T/L162R/M171V/P40S/Q125H/Q178H/Q39Y/Q99D/R42S/S66Y/T262R/V115G/W38E). In words: biochemical. Format: binding. Particulars: read-out: IC50 nM to purified HLA DRB1*1101.
The target of the next assay is DRB1*1302 (Homo sapiens, UniProt P01903+P01911, A100E/A169T/K41T/L162R/M171V/P40S/Q125H/Q178H/Q39Y/Q99D/R42S/S66N/T262R/V115G/W38E/Y61H). The assay is described as follows: biochemical. Format: binding. Particulars: read-out: IC50 nM to purified HLA DRB1*1302.
Sequence of DRB1*1302 (P01903 26-254 limits assumed, other chains not shown): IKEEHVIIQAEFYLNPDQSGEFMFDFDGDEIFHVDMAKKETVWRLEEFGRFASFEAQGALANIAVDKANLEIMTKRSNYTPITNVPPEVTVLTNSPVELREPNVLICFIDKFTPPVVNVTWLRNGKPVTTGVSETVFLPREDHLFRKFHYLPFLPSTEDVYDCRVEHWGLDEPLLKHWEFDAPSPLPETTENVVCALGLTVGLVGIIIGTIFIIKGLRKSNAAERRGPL
A further assay has as its target T4, DRB1*1501 (Homo sapiens, UniProt P01903+P01911).
T4 construct: made in house; host or cells: EBV-transformed homozygous human B cell lines, transfected fibroblasts or single-allele 721.221 transfectants
The assay is described as follows: biochemical. Type of assay: binding. Particulars: read-out: IC50 nM to purified HLA DRB1*1501.

The target of a further assay is DRB1*0701 (Homo sapiens, UniProt P01903+P01911, A100R/A102G/A103Q/D57E/D86V/E43K/F76Y/K127E/L162R/M171V/P40G/Q125H/Q99D/R33Q/R42Y/R54Q/S133A/S66F/T210M/V115G/Y107V/Y59L/Y89S). The assay is described as follows: biochemical. Format: binding.
The target in a further assay is T5, DRB1*0301 (Homo sapiens, UniProt P01903+P01911, A100K/A102G/A103R/A169T/F55Y/I96L/K41T/L162R/M171V/P40S/Q125H/Q178H/Q39Y/R42S/S66N/T106N/T262R/W38E/Y61H).
T5 construct: made in house; host or cells: EBV-transformed homozygous human B cell lines, transfected fibroblasts or single-allele 721.221 transfectants
T5 sequence (P01903 26-254, other chains not shown): as the sequence (P01903 26-254 limits assumed, other chains not shown) above
The assay is described as follows: biochemical. Format: binding.

Another assay deals with T6, DRB1*0101 (Homo sapiens, UniProt P01903+P01911, A100R/D57E/F55L/F60I/F76Y/I96L/L162R/M171V/P40L/Q125E/R42F/V115G/Y59C).
T6 construct: made in house; host or cells: EBV-transformed homozygous human B cell lines, transfected fibroblasts or single-allele 721.221 transfectants
The assay is described as follows: biochemical. Type of assay: binding.

A further assay has as its system CD4+ PBMC. Type of assay: cell-based, human. Particulars: IFNγ ELISPOT, PBMC rested five days, CD8-depleted.
Another assay addresses DRB1*0405 (Homo sapiens, UniProt P01903+P01911, A100R/A169T/D86S/F76Y/I96L/K127E/L162R/M171V/N62H/P40V/Q125Y/R42H/S133A/S149N/S66Y/V115G/V209L/W38E). The assay is described as follows: biochemical. Type of assay: binding. Particulars: read-out: IC50 nM to purified HLA DRB1*0405.
[1] abbreviates: IC50 nM to purified HLA DRB1*0404.
Where [2] appears, read: IC50 nM to purified HLA DRB1*0101.
[3] abbreviates: IC50 nM to purified HLA DRB1*0101, Table 4.

Usually IC50 stands for the concentration that gives 50% inhibition.

Sequence of DRB1*1101 (P01903 26-254 limits assumed, other chains not shown): as above

For `CC[C@H](C)[C@H](NC(=O)[C@@H](NC(=O)[C@H](CCCNC(=N)N)NC(=O)[C@H](CCC(N)=O)NC(=O)[C@@H](NC(=O)[C@@H](NC(=O)[C@H](CCSC)NC(=O)[C@H](CCCCN)NC(=O)[C@H](CCCCN)NC(=O)[C@@H](N)[C@@H](C)O)C(C)C)[C@@H](C)O)[C@@H](C)O)C(=O)NCC(=O)N[C@@H](CCCCN)C(=O)N[C@@H](CCCCN)C(=O)N[C@@H](CCCCN)C(=O)N[C@@H](CCC(N)=O)C(=O)O` [Flu.PB1.199], the IC50 was found to be 0.055 µM on DRB1*0802; 0.0041 µM at DRB5*0101; 57 nM against DRB4*0101; 71 nM on DRB1*0401; 62 nM against DRB1*0404 (setting [1]); 449 nM at DRB1*1101. Moreover, the IC50 at DRB1*1302 came out at 6120 nM; at DRB1*1501 it was 9710 nM; against DRB1*0701 it was 14100 nM.
As for `CC[C@H](C)[C@H](NC(=O)CNC(=O)[C@@H]1CCCN1C(=O)[C@H](Cc1c[nH]cn1)NC(=O)[C@H](CO)NC(=O)[C@H](CCC(=O)O)NC(=O)[C@H](CCC(=O)O)NC(=O)[C@H](CC(C)C)NC(=O)[C@H](Cc1ccccc1)NC(=O)[C@H](C)NC(=O)[C@H](CCSC)NC(=O)[C@H](C)N)C(=O)N[C@@H](Cc1ccccc1)C(=O)N[C@@H](CCC(=O)O)C(=O)N[C@@H](CC(N)=O)C(=O)O` [Flu.PB1.94], the results for the IC50 against DRB1*0301 and on DRB1*0701 were 0.4 µM and 84 nM, respectively.
Regarding `CC[C@H](C)[C@H](NC(=O)[C@H](CC(C)C)NC(=O)[C@@H](NC(=O)[C@@H](N)CC(N)=O)C(C)C)C(=O)NCC(=O)N[C@@H](CCC(N)=O)C(=O)NCC(=O)N[C@@H](CC(=O)O)C(=O)N[C@H](C(=O)N[C@H](C(=O)N[C@@H](CC(C)C)C(=O)N[C@H](C(=O)N[C@@H](CCSC)C(=O)N[C@@H](CCCCN)C(=O)N[C@@H](CCCNC(=N)N)C(=O)O)C(C)C)C(C)C)C(C)C` [Flu.PB2.726], the IC50 on DRB1*0802 turned out to be 1.08 µM; against DRB5*0101, 4.2 µM.
As to `CC[C@H](C)[C@H](N)C(=O)NCC(=O)N[C@@H](CCCNC(=N)N)C(=O)N[C@@H](Cc1ccccc1)C(=O)N[C@@H](Cc1ccc(O)cc1)C(=O)N[C@H](C(=O)N[C@@H](CCC(N)=O)C(=O)N[C@@H](CCSC)C(=O)N[C@@H](CS)C(=O)N[C@H](C(=O)N[C@@H](CCC(=O)O)C(=O)N[C@@H](CC(C)C)C(=O)N[C@@H](CCCCN)C(=O)N[C@@H](CC(C)C)C(=O)N[C@@H](CO)C(=O)O)[C@@H](C)O)[C@@H](C)CC` [Flu.NP.39], the IC50 on DRB1*0802 is 0.13 µM; at DRB5*0101, 0.078 µM; on DRB1*0101 (setting [2]), 64 nM and 43 nM; at DRB1*0101 (setting [3]) it was 64 nM; at DRB4*0101, 990 nM; on DRB1*1101, 880 nM. Besides, the IC50 on DRB1*1302 was 640 nM. In addition, in the assay with CD4+ PBMC, the “Human influenza epitope-specific immune response, donor 3501” value is on record as “Positive (Donors were considered positive for a peptide if the number of spots was over 3 times background as determined by responses to irrelevant peptides (non influenza))”.
With `CC[C@H](C)[C@H](NC(=O)CNC(=O)[C@@H](NC(=O)[C@@H](NC(=O)[C@H](CO)NC(=O)[C@H](C)NC(=O)[C@H](C)NC(=O)[C@@H](NC(=O)[C@@H](NC(=O)[C@H](CC(C)C)NC(=O)[C@@H]1CCCN1C(=O)[C@@H](N)CC(=O)O)C(C)C)C(C)C)[C@@H](C)CC)[C@@H](C)CC)C(=O)N[C@@H](CC(C)C)C(=O)N[C@@H](Cc1c[nH]cn1)C(=O)N[C@@H](CC(C)C)C(=O)O` [Flu.M2.27], the IC50 at DRB1*0101 (read-out: IC50 nM to purified HLA DRB1*0101) was found to be 78 nM; on DRB1*0405, 630 nM; on DRB1*0401, 92 nM; at DRB1*0404 (read-out: IC50 nM to purified HLA DRB1*0404) it was 23 nM; on DRB1*1101 it was 1800 nM; at DRB1*1501, 2200 nM. Further, on DRB1*0701 (read-out: IC50 nM to purified HLA DRB1*0701), the 50% inhibitory concentration (IC50) was determined as 1300 nM.
As to `CSCC[C@H](NC(=O)[C@H](CO)NC(=O)[C@H](CCCCN)NC(=O)[C@H](C)N)C(=O)N[C@@H](CCC(=O)O)C(=O)N[C@@H](Cc1ccc(O)cc1)C(=O)N[C@@H](CC(=O)O)C(=O)N[C@@H](C)C(=O)N[C@H](C(=O)N[C@@H](C)C(=O)N[C@H](C(=O)N[C@H](C(=O)N[C@@H](Cc1c[nH]cn1)C(=O)N[C@@H](CO)C(=O)N[C@@H](Cc1c[nH]c2ccccc12)C(=O)O)[C@@H](C)O)[C@@H](C)O)C(C)C` [Flu.PB1.655], the IC50 came out at 3.53 µM against DRB5*0101; 202 nM at DRB1*0101 (setting [2]); 6340 nM at DRB4*0101; 626 nM at DRB1*0405; 53 nM at DRB1*0401; 646 nM at DRB1*0404 (setting [1]). Also, the IC50 on DRB1*1101 turned out to be 6620 nM; on DRB1*1302, 2180 nM; at DRB1*1501, 1990 nM; against DRB1*0301, 0.909 µM; at DRB1*0701 it was 292 nM.
For `CC[C@H](C)[C@H](NC(=O)[C@H](CCC(=O)O)NC(=O)CNC(=O)[C@@H](N)C(C)C)C(=O)N[C@@H](CO)C(=O)N1CCC[C@H]1C(=O)N[C@@H](CC(C)C)C(=O)N1CCC[C@H]1C(=O)N[C@@H](CO)C(=O)N[C@@H](CC(C)C)C(=O)N1CCC[C@H]1C(=O)NCC(=O)N[C@@H](Cc1c[nH]cn1)C(=O)N[C@H](C(=O)N[C@@H](CC(=O)O)C(=O)O)[C@@H](C)O` [Flu.NS1.160], the half-maximal inhibitory concentration (IC50) is 14 nM and 12 nM against DRB1*0101 (setting [2]); 14 nM at DRB1*0101 (setting [3]); 31 nM at DRB1*0401 (Table 4); 31 nM and 16 nM at DRB1*0401; 8.5 nM at DRB1*0404 (setting [1]); 90 nM on DRB1*1101. Moreover, the IC50 at DRB1*1302 was above 10000 nM; at DRB1*1501 (Table 4), 38 nM; at DRB1*1501 it was 38 nM and 28 nM; on DRB1*0301, above 10 µM; against DRB1*0701 it was above 10000 nM.
`CSCC[C@H](NC(=O)[C@@H](NC(=O)[C@H](CCCNC(=N)N)NC(=O)[C@@H](N)CC(=O)O)C(C)C)C(=O)N[C@H](C(=O)N[C@@H](CO)C(=O)N1CCC[C@H]1C(=O)N[C@@H](CC(C)C)C(=O)N[C@@H](C)C(=O)N[C@H](C(=O)N[C@H](C(=O)N[C@@H](Cc1c[nH]c2ccccc12)C(=O)N[C@@H](Cc1c[nH]c2ccccc12)C(=O)N[C@@H](CC(N)=O)C(=O)N[C@@H](CCCNC(=N)N)C(=O)O)[C@@H](C)O)C(C)C)C(C)C` [Flu.PB2.90]: the IC50 on DRB1*0802 is 3.55 µM; against DRB1*0101 (setting [2]), 93 nM; at DRB1*0405 it was 16000 nM.
As to `CC[C@H](C)[C@H](NC(=O)[C@H](CC(C)C)NC(=O)[C@H](Cc1ccccc1)NC(=O)CNC(=O)[C@H](CCCNC(=N)N)NC(=O)[C@H](CC(C)C)NC(=O)[C@@H](NC(=O)[C@H](C)NC(=O)[C@H](CO)NC(=O)[C@@H](N)CCC(=O)O)C(C)C)C(=O)N[C@@H](CC(C)C)C(=O)NCC(=O)N[C@@H](CCCCN)C(=O)N[C@@H](CCC(=O)O)C(=O)N[C@@H](CC(=O)O)C(=O)O` [Flu.PB2.690], the IC50 against DRB1*0802 was determined as 0.803 µM; against DRB5*0101 it was 0.303 µM; against DRB1*0101 (setting [2]), 8.4 nM; on DRB4*0101, 1280 nM; on DRB1*0405, 7100 nM; at DRB1*0404 (setting [1]), 110 nM. The 50% inhibitory concentration (IC50) on DRB1*1501 turned out to be 39 nM; against DRB1*0701, 2470 nM.
